Reference: US12227488B2, “Small molecule degraders of Helios and methods of use” (DANA-FARBER CANCER INSTITUTE, INC., priority 2018, dated 2025)

Assays:
[1] = molecular target: T1, CRBN and Helios (IKZF2) (Homo sapiens, UniProt Q96SW2+Q9UKS7); assay: TR-FRET dimerization assay (CRBN-IKZF2 ternary complex formation); assay type: binding; conditions: n=1
T1 construct: His (N); Strep (N)
In short: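 BODIPY-labeled DDB1ΔB-CRBN and in vitro biotinylated IKZF2 were treated with increasing compound concentrations plus tracer Terbium-Streptavidin and incubated 15 min at rt. Recruitment was quantified as the 520/490 nm TR-FRET ratio; values are single measurements (n=1), each averaged from at least three technical replicates.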

[2] = molecular target: GSPT1 (Homo sapiens, UniProt P15170+Q96SW2); assay: Cellular degradation assay, eGFP-GSPT1 fusion with mCherry reporter in Flp-In 293 cells; assay type: cell-based; parameters: expressed in transfected cells; host or cells: Flp-In 293; conditions: for GSPT1 GFP/RFP Relative Abundance: 5 h incubation, n=1; for DC50: half degradation at 5 h (DC50,5 h), triplicate, 11 point dose response
Sequence of GSPT1 (P15170 whole entry, the tested form may be a part): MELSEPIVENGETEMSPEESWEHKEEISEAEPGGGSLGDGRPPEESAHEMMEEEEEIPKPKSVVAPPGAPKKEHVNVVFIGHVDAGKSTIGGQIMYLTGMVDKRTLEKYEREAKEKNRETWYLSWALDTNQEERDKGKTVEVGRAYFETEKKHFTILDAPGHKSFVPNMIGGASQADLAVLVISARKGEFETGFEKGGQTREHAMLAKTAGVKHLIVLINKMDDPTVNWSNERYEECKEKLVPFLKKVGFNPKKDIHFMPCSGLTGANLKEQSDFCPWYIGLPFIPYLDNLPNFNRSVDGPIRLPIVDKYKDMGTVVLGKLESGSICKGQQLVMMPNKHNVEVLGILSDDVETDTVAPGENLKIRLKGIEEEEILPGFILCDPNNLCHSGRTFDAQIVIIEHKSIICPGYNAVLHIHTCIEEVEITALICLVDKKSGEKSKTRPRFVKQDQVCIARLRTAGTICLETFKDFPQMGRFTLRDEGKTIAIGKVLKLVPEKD
Sequence of GSPT1 (Q96SW2 whole entry, the tested form may be a part): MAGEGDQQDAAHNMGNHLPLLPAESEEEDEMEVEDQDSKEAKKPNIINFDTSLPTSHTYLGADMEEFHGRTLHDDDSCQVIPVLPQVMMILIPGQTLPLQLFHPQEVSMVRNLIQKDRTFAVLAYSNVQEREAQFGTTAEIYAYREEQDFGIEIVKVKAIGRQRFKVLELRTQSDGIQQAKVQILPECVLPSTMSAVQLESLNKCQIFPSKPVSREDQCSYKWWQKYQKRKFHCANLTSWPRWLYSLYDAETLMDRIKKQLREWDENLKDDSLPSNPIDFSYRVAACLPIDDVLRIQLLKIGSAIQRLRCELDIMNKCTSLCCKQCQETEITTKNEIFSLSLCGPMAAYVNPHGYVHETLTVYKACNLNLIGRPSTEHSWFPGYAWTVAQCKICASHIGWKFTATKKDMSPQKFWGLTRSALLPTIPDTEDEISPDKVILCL
Sequence of GSPT1 (Q16531 whole entry partner, the tested form may be a part): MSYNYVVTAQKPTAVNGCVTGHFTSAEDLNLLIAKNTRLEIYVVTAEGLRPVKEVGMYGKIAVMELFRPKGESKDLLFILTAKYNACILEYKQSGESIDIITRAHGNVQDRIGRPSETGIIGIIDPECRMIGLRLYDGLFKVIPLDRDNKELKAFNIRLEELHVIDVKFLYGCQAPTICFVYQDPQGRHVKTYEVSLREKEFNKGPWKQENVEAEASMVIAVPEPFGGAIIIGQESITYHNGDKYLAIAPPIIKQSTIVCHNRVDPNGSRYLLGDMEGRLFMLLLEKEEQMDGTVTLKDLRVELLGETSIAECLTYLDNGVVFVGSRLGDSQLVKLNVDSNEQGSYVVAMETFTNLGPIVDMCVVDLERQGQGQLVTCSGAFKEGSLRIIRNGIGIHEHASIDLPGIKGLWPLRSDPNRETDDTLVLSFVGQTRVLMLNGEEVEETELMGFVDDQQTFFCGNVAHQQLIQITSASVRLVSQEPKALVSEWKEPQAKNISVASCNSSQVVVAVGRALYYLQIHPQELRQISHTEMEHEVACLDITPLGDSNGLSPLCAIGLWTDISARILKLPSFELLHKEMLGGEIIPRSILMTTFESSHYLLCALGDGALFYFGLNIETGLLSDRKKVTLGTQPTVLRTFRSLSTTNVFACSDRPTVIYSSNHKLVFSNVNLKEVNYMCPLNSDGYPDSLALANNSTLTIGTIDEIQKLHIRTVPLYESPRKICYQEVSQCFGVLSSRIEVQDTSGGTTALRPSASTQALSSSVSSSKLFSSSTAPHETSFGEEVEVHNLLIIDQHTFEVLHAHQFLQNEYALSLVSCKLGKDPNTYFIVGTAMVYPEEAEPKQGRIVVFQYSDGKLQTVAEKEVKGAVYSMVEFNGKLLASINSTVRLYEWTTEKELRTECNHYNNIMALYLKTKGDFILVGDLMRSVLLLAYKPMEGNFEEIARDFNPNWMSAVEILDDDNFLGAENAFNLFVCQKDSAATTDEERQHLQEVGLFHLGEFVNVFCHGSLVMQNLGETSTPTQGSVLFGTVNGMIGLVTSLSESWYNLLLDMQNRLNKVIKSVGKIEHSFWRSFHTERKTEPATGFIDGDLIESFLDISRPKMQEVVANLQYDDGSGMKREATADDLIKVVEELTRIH
In short: (§1)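 Flp-In 293 cells stably expressing eGFP-tagged degron fusions with P2A-mCherry reporter were treated with compound titrations (0.5% DMSO) for 5 hours. Imaging quantified GFP-positive/mCherry-positive cell fraction per well; DC50 at 5 h from nonlinear variable-slope fit.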

[3] = molecular target: T2, IKZF1 (Homo sapiens, UniProt Q13422); assay: Cellular degradation assay, eGFP-IKZF1Δ fusion with mCherry reporter in Flp-In 293 cells; assay type: cell-based; conditions: for IKZF1 GFP/RFP Relative Abundance: 5 h incubation, n=1; for DC50: half degradation at 5 h (DC50,5 h), triplicate, 11 point dose response
T2 construct: expressed in transfected cells; host or cells: Flp-In 293
T2 sequence (Q13422 83-213 isoform Q13422-7 limits assumed): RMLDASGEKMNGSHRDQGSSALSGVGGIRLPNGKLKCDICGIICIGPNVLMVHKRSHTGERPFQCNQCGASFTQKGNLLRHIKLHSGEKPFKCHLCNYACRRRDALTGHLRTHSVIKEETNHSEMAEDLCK
T2 sequence (Q96SW2 whole entry partner, the tested form may be a part): as the sequence (Q96SW2 whole entry, the tested form may be a part) above
T2 sequence (Q16531 2-1140 partner limits assumed): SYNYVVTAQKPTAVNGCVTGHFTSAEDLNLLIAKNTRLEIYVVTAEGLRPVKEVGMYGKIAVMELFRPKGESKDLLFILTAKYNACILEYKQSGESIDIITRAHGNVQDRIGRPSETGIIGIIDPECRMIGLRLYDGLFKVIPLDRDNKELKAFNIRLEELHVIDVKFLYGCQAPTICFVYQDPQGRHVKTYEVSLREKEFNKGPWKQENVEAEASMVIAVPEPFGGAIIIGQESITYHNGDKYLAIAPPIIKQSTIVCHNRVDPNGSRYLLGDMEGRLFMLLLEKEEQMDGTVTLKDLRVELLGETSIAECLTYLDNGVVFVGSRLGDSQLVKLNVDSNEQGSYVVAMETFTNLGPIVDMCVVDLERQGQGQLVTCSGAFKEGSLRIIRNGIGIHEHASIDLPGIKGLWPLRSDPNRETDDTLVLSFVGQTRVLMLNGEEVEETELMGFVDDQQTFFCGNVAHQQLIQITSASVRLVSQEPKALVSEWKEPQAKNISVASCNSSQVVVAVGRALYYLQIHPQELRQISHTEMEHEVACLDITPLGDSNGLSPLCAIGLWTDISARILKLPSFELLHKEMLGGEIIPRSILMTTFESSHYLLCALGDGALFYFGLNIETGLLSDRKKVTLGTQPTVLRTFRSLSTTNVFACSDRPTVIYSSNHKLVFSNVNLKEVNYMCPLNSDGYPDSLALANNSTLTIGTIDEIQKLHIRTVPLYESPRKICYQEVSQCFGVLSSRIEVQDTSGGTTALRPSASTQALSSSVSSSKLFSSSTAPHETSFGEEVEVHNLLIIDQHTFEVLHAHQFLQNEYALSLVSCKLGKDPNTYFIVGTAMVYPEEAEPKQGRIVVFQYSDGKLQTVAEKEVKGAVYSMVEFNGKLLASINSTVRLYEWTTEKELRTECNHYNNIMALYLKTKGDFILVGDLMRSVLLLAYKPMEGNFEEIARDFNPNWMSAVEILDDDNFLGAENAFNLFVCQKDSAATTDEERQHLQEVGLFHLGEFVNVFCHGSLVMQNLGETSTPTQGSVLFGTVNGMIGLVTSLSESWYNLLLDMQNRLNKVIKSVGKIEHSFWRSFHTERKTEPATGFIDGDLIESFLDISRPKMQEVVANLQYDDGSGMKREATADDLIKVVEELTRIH
In short: as §1

[4] = test system: IKZF2; assay: Cellular degradation assay, eGFP-IKZF2Δ fusion with mCherry reporter in Flp-In 293 cells; assay type: cell-based; conditions: for IKZF2 GFP/RFP Relative Abundance: 5 h incubation, n=1; for potency of IKZF2 degradation, in words: Table 3 summary; for DC50: half degradation at 5 h (DC50,5 h), triplicate, 11 point dose response
In short: as §1

[5] = compound concentration 6.6667E−05
[6] = compound concentration 6.6667E−06
[7] = compound concentration 6.6667E−07 (667 nM)
[8] = compound concentration 2.00E−05
[9] = compound concentration 2.00E−06
[10] = compound concentration 2.00E−07

T1 sequence (Q96SW2 whole entry): as the sequence (Q96SW2 whole entry, the tested form may be a part) above
T1 sequence (Q9UKS7 whole entry): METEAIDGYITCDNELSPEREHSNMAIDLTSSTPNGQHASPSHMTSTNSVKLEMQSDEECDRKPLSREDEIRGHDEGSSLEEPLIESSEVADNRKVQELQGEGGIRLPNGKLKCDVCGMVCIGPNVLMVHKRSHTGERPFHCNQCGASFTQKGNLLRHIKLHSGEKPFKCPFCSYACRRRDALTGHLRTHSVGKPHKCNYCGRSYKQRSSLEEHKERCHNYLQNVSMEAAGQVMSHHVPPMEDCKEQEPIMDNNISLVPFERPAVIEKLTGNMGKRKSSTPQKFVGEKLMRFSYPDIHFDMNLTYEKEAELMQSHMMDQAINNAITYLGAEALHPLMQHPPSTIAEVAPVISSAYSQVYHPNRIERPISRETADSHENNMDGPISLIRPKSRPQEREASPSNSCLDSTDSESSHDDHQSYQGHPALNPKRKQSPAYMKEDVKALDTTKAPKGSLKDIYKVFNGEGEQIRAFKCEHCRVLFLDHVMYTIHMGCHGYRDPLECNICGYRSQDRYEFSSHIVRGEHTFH

Cc1ccc(NCc2cccc(NC3=CC(=O)N(C4CCC(=O)NC4=O)C3=O)c2)cc1Cl (stereo not drawn) [Compound 63, 3-(3-((3-(((3-chloro-4-methylphenyl)amino)methyl)-phenyl)amino)-2,5-dioxo-2,5-dihydro-1H-pyrrol-1-yl)piperidine-2,6-dione]
TR-FRET-IKZF2 (Normalized to CC-885) [1, 5]: 0.703
TR-FRET-IKZF2 (Normalized to CC-885) [1, 6]: 0.649
TR-FRET-IKZF2 (Normalized to CC-885) [1, 7]: 0.625
GSPT1 GFP/RFP Relative Abundance [2, 8]: 0.274
GSPT1 GFP/RFP Relative Abundance [2, 9]: 0.722
GSPT1 GFP/RFP Relative Abundance [2, 10]: 0.844
IKZF1 GFP/RFP Relative Abundance [3, 8]: 0.081
IKZF1 GFP/RFP Relative Abundance [3, 9]: 0.068
IKZF1 GFP/RFP Relative Abundance [3, 10]: 0.086
IKZF2 GFP/RFP Relative Abundance [4, 8]: 0.428
IKZF2 GFP/RFP Relative Abundance [4, 9]: 0.339
IKZF2 GFP/RFP Relative Abundance [4, 10]: 0.470

Cc1ccc(NC(=O)N[C@@H](C)c2cccc(NC3=CC(=O)N(C4CCC(=O)NC4=O)C3=O)c2)cc1Cl (stereo partly drawn) [Compound 71, 1-(3-chloro-4-methylphenyl)-3-((1S)-1-(3-((1-(2,6-dioxopiperidin-3-yl)-2,5-dioxo-2,5-dihydro-1H-pyrrol-3-yl)amino)phenyl)ethyl)urea]
TR-FRET-IKZF2 (Normalized to CC-885) [1, 5]: 1.811
TR-FRET-IKZF2 (Normalized to CC-885) [1, 6]: 1.675
TR-FRET-IKZF2 (Normalized to CC-885) [1, 7]: 1.657
DC50 [2]: > 1000 nM
IKZF1 GFP/RFP Relative Abundance [3, 8]: 0.088
IKZF1 GFP/RFP Relative Abundance [3, 9]: 0.086
IKZF1 GFP/RFP Relative Abundance [3, 10]: 0.076
DC50 [3]: 2.1 nM
potency of IKZF2 degradation, in words [4]: most potent against IKZF2
IKZF2 GFP/RFP Relative Abundance [4, 8]: 0.016
IKZF2 GFP/RFP Relative Abundance [4, 9]: 0.018
IKZF2 GFP/RFP Relative Abundance [4, 10]: 0.019
DC50 [4]: 1.9 nM

CCC(NC(=O)Nc1ccc(C)c(Cl)c1)c1cccc(NC2=CC(=O)N(C3CCC(=O)NC3=O)C2=O)c1 (stereo not drawn) [Compound 74, 1-(3-chloro-4-methylphenyl)-3-(1-(3-((1-(2,6-dioxopiperidin-3-yl)-2,5-dioxo-2,5-dihydro-1H-pyrrol-3-yl)amino)phenyl)propyl)urea]
TR-FRET-IKZF2 (Normalized to CC-885) [1, 5]: 2.010
TR-FRET-IKZF2 (Normalized to CC-885) [1, 6]: 1.914
TR-FRET-IKZF2 (Normalized to CC-885) [1, 7]: 1.817
DC50 [2]: > 1000 nM
IKZF1 GFP/RFP Relative Abundance [3, 8]: 0.096
IKZF1 GFP/RFP Relative Abundance [3, 9]: 0.090
IKZF1 GFP/RFP Relative Abundance [3, 10]: 0.114
DC50 [3]: 7.8 nM
potency of IKZF2 degradation, in words [4]: most potent against IKZF2
IKZF2 GFP/RFP Relative Abundance [4, 8]: 0.021
IKZF2 GFP/RFP Relative Abundance [4, 9]: 0.033
IKZF2 GFP/RFP Relative Abundance [4, 10]: 0.032
degradation selectivity IKZF2/IKZF1 ([4]; from DC50 values of Table 3): ~4 fold
DC50 [4]: 1.9 nM
